pKd: −log10 of the molar value. Read-outs that look alike come from different tables or passages of the source. Positions of bridges follow the written chain, without caps; N, C: chain ends. Non-standard residues stand in square brackets, D forms with d. Residues, ends and D or L forms follow the SMILES beside them. Primed or numbered codes have the meaning given here. No end group written: not given here. FITC′ = not defined here; PEG4′ = not defined here
Key:
integrin α6β4 [1] = target: T1, integrin α6β4 (Homo sapiens, UniProt P23229); experiment: Microscale thermophoresis (MST) affinity to integrin α6β4; format: binding; conditions: relative to CRWYDENAC (RWY) = 1.00
T1 sequence (P23229 24-1050 limits assumed): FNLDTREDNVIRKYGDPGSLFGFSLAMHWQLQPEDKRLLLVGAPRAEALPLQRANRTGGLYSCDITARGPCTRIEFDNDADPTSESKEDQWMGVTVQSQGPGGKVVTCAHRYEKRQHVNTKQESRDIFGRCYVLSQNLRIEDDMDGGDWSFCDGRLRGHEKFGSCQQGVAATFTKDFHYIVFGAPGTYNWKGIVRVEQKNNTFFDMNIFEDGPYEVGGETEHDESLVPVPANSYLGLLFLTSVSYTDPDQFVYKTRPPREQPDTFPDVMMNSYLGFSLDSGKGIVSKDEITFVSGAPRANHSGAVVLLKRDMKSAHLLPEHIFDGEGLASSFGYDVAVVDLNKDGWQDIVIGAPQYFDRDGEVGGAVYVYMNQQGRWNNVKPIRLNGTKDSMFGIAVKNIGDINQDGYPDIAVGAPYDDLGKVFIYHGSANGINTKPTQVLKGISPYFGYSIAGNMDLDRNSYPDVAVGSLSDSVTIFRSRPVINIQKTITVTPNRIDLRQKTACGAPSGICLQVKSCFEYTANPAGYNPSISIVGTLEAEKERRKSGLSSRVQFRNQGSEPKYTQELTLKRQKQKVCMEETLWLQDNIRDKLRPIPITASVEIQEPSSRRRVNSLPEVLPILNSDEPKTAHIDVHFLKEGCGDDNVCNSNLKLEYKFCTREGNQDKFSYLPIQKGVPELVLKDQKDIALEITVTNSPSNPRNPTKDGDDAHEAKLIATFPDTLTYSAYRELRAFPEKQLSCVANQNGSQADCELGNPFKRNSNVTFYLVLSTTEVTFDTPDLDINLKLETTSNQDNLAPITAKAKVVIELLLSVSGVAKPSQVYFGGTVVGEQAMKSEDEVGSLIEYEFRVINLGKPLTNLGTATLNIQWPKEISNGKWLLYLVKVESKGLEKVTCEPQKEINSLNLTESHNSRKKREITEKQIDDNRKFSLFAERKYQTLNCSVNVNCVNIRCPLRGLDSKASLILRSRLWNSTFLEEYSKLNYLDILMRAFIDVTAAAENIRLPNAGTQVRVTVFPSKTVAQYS
T1 sequence (P16144 28-710 partner limits assumed): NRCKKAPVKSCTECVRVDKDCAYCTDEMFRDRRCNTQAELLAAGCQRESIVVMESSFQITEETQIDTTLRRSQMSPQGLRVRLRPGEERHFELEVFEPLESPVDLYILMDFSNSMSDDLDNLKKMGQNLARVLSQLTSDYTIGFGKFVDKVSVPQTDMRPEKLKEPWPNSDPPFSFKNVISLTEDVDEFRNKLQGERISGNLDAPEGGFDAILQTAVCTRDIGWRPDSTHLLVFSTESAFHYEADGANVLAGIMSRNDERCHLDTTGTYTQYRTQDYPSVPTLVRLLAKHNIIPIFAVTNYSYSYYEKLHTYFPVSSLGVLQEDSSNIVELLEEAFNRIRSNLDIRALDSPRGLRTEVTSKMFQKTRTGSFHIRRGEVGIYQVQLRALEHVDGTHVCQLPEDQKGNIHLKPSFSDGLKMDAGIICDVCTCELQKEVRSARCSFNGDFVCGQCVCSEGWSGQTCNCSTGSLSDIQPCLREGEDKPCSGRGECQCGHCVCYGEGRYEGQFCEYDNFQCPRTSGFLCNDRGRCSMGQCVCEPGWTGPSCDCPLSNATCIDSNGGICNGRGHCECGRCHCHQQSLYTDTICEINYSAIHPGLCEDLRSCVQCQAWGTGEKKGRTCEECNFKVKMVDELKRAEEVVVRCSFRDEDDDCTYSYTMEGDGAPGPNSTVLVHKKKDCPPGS
Procedure: (§1) The affinity between these 18 polypeptides and integrin α6β4 was detected by microscale thermophoresis (MST) method as follows: • 1) Integrin α6β4 protein was dissolved to 800 nM, and polypeptide was dissolved to 100 μM. • 2) A RED-tris-NTA second-generation dye was diluted to 100 nM by using the MO series RED-tris-NTA protein labeling kit. • 3) 100 μl α6β4 protein was mixed with 50 μl dye and incubated at room temperature for 30 min, so that the α6β4 protein binds to the dye. • 4) 10 μl polypeptide was transferred into a PCR tube, and was diluted with PBST (containing 0.05% Tween 20) at a ratio of 1:1 to 16 gradients of concentrations. • 5) 3 μl protein/dye mixture was transferred into a PCR tube, 3 μl of 16 different concentrations of polypeptides was respectively added and mixed well. • 6) The mixture was absorbed by capillary and loaded on machine (instrument model Monolith NT.115) to assay, parameters were set as 80% LED/excitation power and medium MST power. • 7) MO. Affinity Analysis software was used to calculate the equilibrium dissociation constant KD between α6β4 protein and polypeptide by KD fitting mode.

integrin α6β4 [2] = target: T2, integrin α6β4 (Homo sapiens, UniProt P16144+P23229); experiment: as above; format: binding; conditions: MST
T2 sequence (P23229 24-1050 limits assumed): T1 sequence (P23229 24-1050 limits assumed)
T2 sequence (P16144 28-710 partner limits assumed): T1 sequence (P16144 28-710 partner limits assumed)
Procedure: as §1

[3] = test system: tumor cells with high integrin α6 expression; experiment: Flow cytometry affinity assay to tumor cells with high integrin α6 expression; format: cell-based, human
Procedure: (§2) The expression of integrin α6 and β4 in human hepatoma cells HCCLM3, human hepatoma cells Huh-7, human hepatoma cells Hep3B, human nasopharyngeal carcinoma cells S18 and human breast cancer cells MDA-MB-231 were detected by flow cytometry. […] Integrin β4 is expressed in HCCLM3, S18 and MDA-MB-231 cells (FIG. 3F, FIG. 3G, FIG. 3I, FIG. 3J). […] Each cell had 3 duplicate wells. • 2) 2 μl of 1 mM RWYD-PEG4-K-FITC (structural formula shown in FIG. 1B, referred to as RD) or CRWYDENAC-PEG4-K-FITC (referred to as RWY) was added into cells, mixed well, and incubate in an incubator at 37° C. for 2 hours. • 3) The culture medium containing polypeptides was absorbed and removed, the cells were washed with PBS for 3 times, 500 μl/time. • 4) The cells were digested with trypsin, resuspended with medium and centrifuged at 300 g for 5 minutes. • 5) The supernatant was discarded and cell precipitation was preserved, and the cells were resuspended with 500 μl saline and placed into the flow tube. • 6) The FITC channel was detected by flow machine and the results were analyzed by CytExpert.
(§3) RWYD-PEG4 forms dimers or polyploids via lysine (K) ligations. Flow cytometry was used to detect expression of integrin α6 in tumor cells. […] The specific operation of affinity assay of tumor cells to RD2 is similar to that of “affinity assay of tumor cells to RD”.

[4] = test system: tumor cells with high integrin α6 expression (HCCLM3, Huh-7, S18, MDA-MB-231; also HT29, KYSE30, SW620, SW1990 for RD2); experiment: Affinity of RD/RD2 to tumor cells with high integrin α6 expression by flow cytometry; format: cell-based, human; conditions: FITC probes, 37° C., 2 hours
Procedure: as §2, §3

Hep3B cells [5] = experiment: Flow cytometry affinity assay to Hep3B cells that do not express integrin α6; format: cell-based, human; conditions: FITC flow cytometry; Hep3B does not express integrin α6
Procedure: as §2, §3

Hep3B cells [6] = experiment: Affinity of RD/RD2 to Hep3B cells (no integrin α6 expression) by flow cytometry; format: cell-based, human; conditions: FITC probes, 37° C., 2 hours
Procedure: as §2, §3

[7] = integrin α6β4, determination 1, read-out: KD (um) 1
[8] = integrin α6β4, determination 2, read-out: KD (um) 2
[9] = integrin α6β4, determination 3, read-out: KD (um) 3
[10] = integrin α6β4, mean of 3, read-out: KD Mean value (μm)

Row | Compound | Affinity relative to RWY (integrin α6β4 [1]) | pKd (integrin α6β4 [2]; [7]) | pKd (integrin α6β4 [2]; [8]) | pKd (integrin α6β4 [2]; [9]) | pKd (integrin α6β4 [2]; [10]) | also measured
1 | C[C@H](NC(=O)[C@H](CC(N)=O)NC(=O)[C@H](C)NC(=O)[C@H](CC(=O)O)NC(=O)[C@H](Cc1ccc(O)cc1)NC(=O)[C@H](Cc1c[nH]c2ccccc12)NC(=O)[C@@H](N)CCCNC(=N)N)C(=O)O [P10, RWYDANA] (H-RWYDANA-OH; N-terminus and C-terminus assumed) | 0.23 | 4.21 | 4.76 | 4.91 | 4.51 | –
2 | C[C@H](NC(=O)[C@H](CC(=O)O)NC(=O)[C@H](Cc1ccc(O)cc1)NC(=O)[C@H](Cc1c[nH]c2ccccc12)NC(=O)[C@@H](N)CCCNC(=N)N)C(=O)N[C@@H](CC(N)=O)C(=O)O [P11, RWYDAN] (H-RWYDAN-OH; N-terminus and C-terminus assumed) | 0.22 | 4.46 | 4.63 | 4.45 | 4.51 | –
3 | C[C@H](NC(=O)[C@H](CCC(=O)O)NC(=O)[C@H](CC(=O)O)NC(=O)[C@H](Cc1ccc(O)cc1)NC(=O)[C@H](Cc1c[nH]c2ccccc12)NC(=O)[C@@H](N)CCCNC(=N)N)C(=O)O [P12, RWYDEA] (H-RWYDEA-OH; N-terminus and C-terminus assumed) | 2.20 | 5.28 | 5.60 | 5.76 | 5.50 | –
4 | N=C(N)NCCC[C@H](N)C(=O)N[C@@H](Cc1c[nH]c2ccccc12)C(=O)N[C@@H](Cc1ccc(O)cc1)C(=O)N[C@@H](CC(=O)O)C(=O)N[C@@H](CCC(=O)O)C(=O)O [P13, RWYDE] (H-RWYDE-OH; N-terminus and C-terminus assumed) | 0.11 | 4.83 | 4.10 | 4.00 | 4.19 | –
5 | C[C@H](NC(=O)[C@H](CC(=O)O)NC(=O)[C@H](Cc1ccc(O)cc1)NC(=O)[C@H](Cc1c[nH]c2ccccc12)NC(=O)[C@@H](N)CCCNC(=N)N)C(=O)O [P14, RWYDA] (H-RWYDA-OH; N-terminus and C-terminus assumed) | 1.38 | 5.20 | 5.33 | 5.37 | 5.30 | –
6 | C[C@H](NC(=O)[C@H](Cc1ccc(O)cc1)NC(=O)[C@H](Cc1c[nH]c2ccccc12)NC(=O)[C@@H](N)CCCNC(=N)N)C(=O)N[C@@H](CCC(=O)O)C(=O)N[C@@H](CC(N)=O)C(=O)O [P16, RWYAEN] (H-RWYAEN-OH; N-terminus and C-terminus assumed) | 0.90 | 5.14 | 5.22 | 5.01 | 5.11 | –
7 | (RWYD-PEG4)2-K-K-FITC (not fully specified) [FITC-labeled RWYD dimer] | – | – | – | – | – | Affinity to tumor cells with high integrin α6 expression compared with RWYD-PEG4-K-FITC ([3]; HCCLM3, S18, HT29, Huh7, MDA-MB-231, KYSE30, SW620, SW1990): stronger affinity
8 | (RWYD-PEG4)2-K-K-FITC (not fully specified) [RD2] | – | – | – | – | – | affinity to tumor cells [4]: stronger affinity to tumor cells with high integrin α6 expression
9 | CRWYDENAC-PEG4-K-FITC (CRWYDENAC[PEG4′]K-{FITC′}; disulfide 1-9 (inferred)) [reference compound] [listing 1 of 2 here] | – | – | – | – | – | Affinity to Hep3B cells, RD versus RWY (Hep3B cells [5]): consistent
10 | CRWYDENAC-PEG4-K-FITC (CRWYDENAC[PEG4′]K-{FITC′}; disulfide 1-9 (inferred)) [reference compound] [listing 2 of 2 here] | – | – | – | – | – | affinity to Hep3B cells (Hep3B cells [6]): consistent with Hep3B cells
11 | RWYD-PEG4-K-FITC [RD] [listing 1 of 2 here] | – | – | – | – | – | Affinity to Hep3B cells, RD versus RWY (Hep3B cells [5]): consistent; Affinity to tumor cells with high integrin α6 expression compared with RWY ([3]; FITC flow cytometry, HCCLM3, Huh7, S18, MDA-MB-231, 37° C., 2 hours): stronger affinity
12 | RWYD-PEG4-K-FITC [RD] [listing 2 of 2 here] | – | – | – | – | – | affinity to Hep3B cells (Hep3B cells [6]): consistent with Hep3B cells; affinity to tumor cells [4]: stronger affinity to tumor cells with high integrin α6 expression than RWY

— patent US20240342320A1, “POLYPEPTIDE TARGETING INTEGRIN ALPHA 6 AND USE THEREOF” (GUANGZHOU GENBIONOVA MEDICAL TECHNOLOGY CO., LTD., priority 2021, published 2024)
